Results on 16 molecules are retold here after patent US20230373985A1 (Origenis Gmbh, priority 2020, published 2023).

Assay [1] has as its target T1, G2019S human LRRK2, catalytic site (Homo sapiens, UniProt Q5S007, G2019S).
T1 construct: G2019S human LRRK2, catalytic site; purchased ThermoFisher
Description: TR-FRET LanthaScreen Eu Kinase Binding Assay, LRRK2 G2019S. The note with it: LRRK2(G2019); one range stated for wt and G2019; read-out: IC50, Activity Toward LRRK2(G2019). A digest of the protocol: (§1)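 Kinase Buffer A holding, as final levels, 8 nM full-length NUAK1, 2 nM Eu-anti-His antibody and 5 nM Tracer 236, or 5 nM LRRK2 catalytic site (wt or G2019S), 2 nM Eu-anti-GST and 10 nM Tracer 236. Compound added, then 1 h at room temperature before TR-FRET ratio readout.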

Assay [2] addresses T2, wt human TYK2, catalytic site (Homo sapiens, UniProt P29597).
T2 construct: wt human TYK2, catalytic site; purchased SignalChem
T2 sequence (P29597 897-1176 limits assumed): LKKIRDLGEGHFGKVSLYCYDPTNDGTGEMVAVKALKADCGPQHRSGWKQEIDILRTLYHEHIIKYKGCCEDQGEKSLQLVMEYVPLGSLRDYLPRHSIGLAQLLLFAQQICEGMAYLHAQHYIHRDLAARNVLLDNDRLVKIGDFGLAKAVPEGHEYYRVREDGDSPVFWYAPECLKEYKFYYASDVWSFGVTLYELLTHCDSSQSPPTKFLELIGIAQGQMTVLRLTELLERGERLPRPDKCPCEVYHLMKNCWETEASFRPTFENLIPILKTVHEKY
Description: HTRF KinEASE assay, TYK2. Type of assay: biochemical. The note with it: 1 μM ATP; read-out: IC50, Activity Toward TYK2. A digest of the protocol: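 Kinase reaction run at room temperature for at least 30 min: 2 nM TYK2 with 1 μM ATP, or 1 nM JAK2 with 100 μM ATP, each with 1 μM biotin-TK substrate. Phosphorylation detected by HTRF (60 min antibody/XL665) and evaluated from emission ratios.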

The target of assay [3] is T3, wt human NUAK1, full length (Homo sapiens, UniProt O60285).
T3 construct: 8 nM wt human NUAK1, full length (ThermoFisher/USA); purchased ThermoFisher
T3 sequence (O60285 1-661): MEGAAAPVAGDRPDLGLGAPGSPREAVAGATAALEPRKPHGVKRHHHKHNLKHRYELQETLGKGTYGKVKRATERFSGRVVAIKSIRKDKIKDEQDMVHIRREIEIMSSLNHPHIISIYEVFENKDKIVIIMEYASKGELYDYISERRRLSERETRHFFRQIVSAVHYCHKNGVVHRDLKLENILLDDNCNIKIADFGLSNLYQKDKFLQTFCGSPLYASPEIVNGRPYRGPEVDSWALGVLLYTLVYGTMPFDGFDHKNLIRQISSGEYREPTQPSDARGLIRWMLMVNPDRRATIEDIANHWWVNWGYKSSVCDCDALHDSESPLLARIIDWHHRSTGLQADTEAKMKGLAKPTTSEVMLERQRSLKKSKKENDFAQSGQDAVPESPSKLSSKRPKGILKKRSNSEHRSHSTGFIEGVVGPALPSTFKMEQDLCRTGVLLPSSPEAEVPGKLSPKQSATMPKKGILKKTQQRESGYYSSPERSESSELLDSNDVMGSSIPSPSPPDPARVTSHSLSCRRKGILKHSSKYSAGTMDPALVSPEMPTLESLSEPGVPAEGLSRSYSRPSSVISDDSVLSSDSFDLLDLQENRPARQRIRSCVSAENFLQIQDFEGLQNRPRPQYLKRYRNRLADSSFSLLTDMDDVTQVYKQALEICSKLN
Description: TR-FRET LanthaScreen Eu Kinase Binding Assay, NUAK1. Particulars: read-out: IC50, Activity Toward NUAK1. A digest of the protocol: as §1

The target of assay [4] is T4, wt human LRRK2, catalytic site (Homo sapiens, UniProt Q5S007).
T4 construct: 5 nM wt human LRRK2, catalytic site; purchased ThermoFisher
The assay can be described thus: TR-FRET LanthaScreen Eu Kinase Binding Assay, LRRK2 wt. The note with it: one range stated for wt and G2019, read-out: IC50, Activity Toward LRRK2(Wt). A digest of the protocol:
as §1

In assay [5] the target is T5, wt human JAK1, catalytic site (Homo sapiens, UniProt P23458).
T5 construct: wt human JAK1, catalytic site; purchased ThermoFisher
The assay can be described thus: HTRF KinEASE assay, JAK1. The assay is classed as biochemical. Particulars: 2.5 μM ATP; read-out: IC50, Activity Toward JAK1. A digest of the protocol: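 Compounds in DMSO dilution were mixed with kinase, biotin-TK substrate and ATP and reacted for ≥30 min at room temperature. Detection reagents (antibody, streptavidin-XL665) were read 60 min later as HTRF, with emission ratios analysed per KinEASE protocol.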

T4 sequence (Q5S007 970-2527 limits assumed): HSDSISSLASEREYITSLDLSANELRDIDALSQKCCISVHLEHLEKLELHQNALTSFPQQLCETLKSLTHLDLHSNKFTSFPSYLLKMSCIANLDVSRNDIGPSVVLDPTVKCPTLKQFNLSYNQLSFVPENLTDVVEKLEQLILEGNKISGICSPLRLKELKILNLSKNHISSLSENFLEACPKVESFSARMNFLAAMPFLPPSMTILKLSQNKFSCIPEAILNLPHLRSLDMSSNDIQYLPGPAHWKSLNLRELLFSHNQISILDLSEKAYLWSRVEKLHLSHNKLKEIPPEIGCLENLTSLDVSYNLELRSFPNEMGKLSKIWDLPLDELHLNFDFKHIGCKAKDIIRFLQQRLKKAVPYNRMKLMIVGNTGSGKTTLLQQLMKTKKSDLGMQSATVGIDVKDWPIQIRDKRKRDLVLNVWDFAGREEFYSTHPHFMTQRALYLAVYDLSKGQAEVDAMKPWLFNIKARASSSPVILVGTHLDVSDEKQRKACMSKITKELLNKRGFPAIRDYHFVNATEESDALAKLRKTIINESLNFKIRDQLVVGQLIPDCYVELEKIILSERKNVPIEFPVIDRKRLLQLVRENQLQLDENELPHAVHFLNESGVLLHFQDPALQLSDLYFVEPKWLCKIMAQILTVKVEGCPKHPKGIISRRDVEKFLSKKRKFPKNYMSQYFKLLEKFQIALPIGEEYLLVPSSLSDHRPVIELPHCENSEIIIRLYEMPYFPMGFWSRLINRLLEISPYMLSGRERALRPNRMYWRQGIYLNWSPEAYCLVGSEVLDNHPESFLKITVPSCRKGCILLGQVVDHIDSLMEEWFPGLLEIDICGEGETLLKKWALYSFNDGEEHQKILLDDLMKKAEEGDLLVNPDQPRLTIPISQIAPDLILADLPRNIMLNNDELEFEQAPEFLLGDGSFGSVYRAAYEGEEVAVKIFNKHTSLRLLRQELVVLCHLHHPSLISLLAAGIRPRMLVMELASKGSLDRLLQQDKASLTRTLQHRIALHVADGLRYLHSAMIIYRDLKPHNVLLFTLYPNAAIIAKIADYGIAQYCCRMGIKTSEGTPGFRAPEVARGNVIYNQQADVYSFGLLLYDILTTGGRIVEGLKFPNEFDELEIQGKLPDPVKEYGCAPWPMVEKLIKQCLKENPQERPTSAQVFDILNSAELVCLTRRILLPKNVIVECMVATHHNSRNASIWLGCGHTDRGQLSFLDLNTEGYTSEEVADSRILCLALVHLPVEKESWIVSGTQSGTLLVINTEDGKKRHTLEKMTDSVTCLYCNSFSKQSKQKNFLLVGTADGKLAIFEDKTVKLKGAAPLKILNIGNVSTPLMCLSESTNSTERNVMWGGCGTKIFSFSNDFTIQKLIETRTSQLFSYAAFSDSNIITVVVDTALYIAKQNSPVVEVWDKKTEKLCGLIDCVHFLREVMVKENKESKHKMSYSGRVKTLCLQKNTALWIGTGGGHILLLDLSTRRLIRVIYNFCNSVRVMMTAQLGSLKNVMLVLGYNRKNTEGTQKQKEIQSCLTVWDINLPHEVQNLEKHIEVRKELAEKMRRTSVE
T5 sequence (P23458 875-1153 limits assumed): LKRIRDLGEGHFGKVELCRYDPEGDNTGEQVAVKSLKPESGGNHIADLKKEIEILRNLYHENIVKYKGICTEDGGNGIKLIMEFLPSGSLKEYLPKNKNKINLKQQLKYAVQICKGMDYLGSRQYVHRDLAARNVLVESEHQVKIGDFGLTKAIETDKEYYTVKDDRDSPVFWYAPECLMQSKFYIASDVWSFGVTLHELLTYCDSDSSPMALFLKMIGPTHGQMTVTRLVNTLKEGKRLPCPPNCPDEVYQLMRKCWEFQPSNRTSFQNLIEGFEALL
T1 sequence (Q5S007 970-2527 G2019S limits assumed): as the sequence (Q5S007 970-2527 limits assumed) above, with G1050S counted along it

For `NC(=O)c1nn(-c2c(Cl)cccc2Cl)cc1Nc1ccc(C(=O)N2CCC(N3CCCC3)C2)cc1` (centres unmarked) [compound 249, 4-((4-([1,3′-bipyrrolidine]-1′-carbonyl)phenyl)amino)-1-(2,6-dichlorophenyl)-1H-pyrazole-3-carboxamide], the IC50 in assay [1] was 100 to 1000 nM; in assay [2] it was under 10 nM; in assay [3], 100 to 1000 nM; in assay [4], 100 to 1000 nM; in assay [5] it was 100 to 1000 nM.

As for `Cn1nc(C(F)(F)F)nc1-c1ccc(Nc2cn(-c3c(F)cccc3F)nc2C(N)=O)cc1` [compound 285, 1-(2,6-difluorophenyl)-4-((4-(1-methyl-3-(trifluoromethyl)-1H-1,2,4-triazol-5-yl)phenyl)amino)-1H-pyrazole-3-carboxamide], the IC50 lay in the range of 100 to 1000 nM in assay [1]; 10 to 100 nM in assay [2]; 100 to 1000 nM in assay [3]; 100 to 1000 nM in assay [4]; 10 to 100 nM in assay [5].

As to `NC(=O)c1nn(-c2c(Cl)cccc2Cl)cc1Nc1ccc(C(=O)N2CCC(N)C2)cc1` (centres unmarked) [compound 317, 4-((4-(3-aminopyrrolidine-1-carbonyl)phenyl)amino)-1-(2,6-dichlorophenyl)-1H-pyrazole-3-carboxamide], the IC50 in assay [1] is 100 to 1000 nM; in assay [2], 10 to 100 nM; in assay [3], 100 to 1000 nM; in assay [4], 100 to 1000 nM; in assay [5] it was 10 to 100 nM.

Turning to `Cn1cc(C(F)(F)F)nc1-c1ccc(Nc2cn(-c3c(F)cccc3F)nc2C(N)=O)cc1` [compound 308, 1-(2,6-difluorophenyl)-4-((4-(1-methyl-4-(trifluoromethyl)-1H-imidazol-2-yl)phenyl)amino)-1H-pyrazole-3-carboxamide], the IC50 was 100 to 1000 nM in assay [1]; 10 to 100 nM in assay [2]; 100 to 1000 nM in assay [3]; 100 to 1000 nM in assay [4]; 10 to 100 nM in assay [5].

On to `CN1CCC(N(C)C(=O)c2ccc(Nc3cn(-c4c(Cl)ccc(F)c4Cl)nc3C(N)=O)cc2)CC1` [compound 417, 1-(2,6-dichloro-3-fluorophenyl)-4-((4-(methyl(1-methylpiperidin-4-yl)carbamoyl)phenyl)amino)-1H-pyrazole-3-carboxamide], for which the IC50 in assay [1] was in the range of 100 to 1000 nM; in assay [2], 10 to 100 nM; in assay [3], 100 to 1000 nM; in assay [4], 100 to 1000 nM; in assay [5], 10 to 100 nM.

Regarding `NC(=O)c1nn(-c2c(F)cccc2Cl)cc1Nc1ccc(C(=O)N2CCOCC2)cn1` [compound 68, 1-(2-chloro-6-fluorophenyl)-4-((5-(morpholine-4-carbonyl)pyridin-2-yl)amino)-1H-pyrazole-3-carboxamide], the IC50 in assay [1] is 100 to 1000 nM; in assay [2] it was 10 to 100 nM; in assay [3], 100 to 1000 nM; in assay [4] it was 100 to 1000 nM; in assay [5], 100 to 1000 nM.

Take `NC(=O)c1nn(-c2c(F)cccc2Cl)cc1Nc1ccc(C(=O)N2CC3(CCC3)C2)cc1` [compound 54, 4-((4-(2-azaspiro[3.3]heptane-2-carbonyl)phenyl)amino)-1-(2-chloro-6-fluorophenyl)-1H-pyrazole-3-carboxamide]: the IC50 lay within 100 to 1000 nM in assay [1]; 10 to 100 nM in assay [2]; 100 to 1000 nM in assay [3]; 100 to 1000 nM in assay [4]; 100 to 1000 nM in assay [5].

As to `CCc1ccnn1-c1ccc(Nc2cn(-c3c(F)cccc3Cl)nc2C(N)=O)cc1` [compound 286, 1-(2-chloro-6-fluorophenyl)-4-((4-(5-ethyl-1H-pyrazol-1-yl)phenyl)amino)-1H-pyrazole-3-carboxamide], the IC50 lay within 100 to 1000 nM in assay [1]; 10 to 100 nM in assay [2]; 100 to 1000 nM in assay [3]; 100 to 1000 nM in assay [4]; 100 to 1000 nM in assay [5].

Take `Cn1nncc1-c1ccc(Nc2cn(-c3c(Cl)cccc3Cl)nc2C(N)=O)cc1` [compound 48, 1-(2,6-dichlorophenyl)-4-((4-(1-methyl-1H-1,2,3-triazol-5-yl)phenyl)amino)-1H-pyrazole-3-carboxamide]: the IC50 in assay [1] lay within 100 to 1000 nM; in assay [2], 10 to 100 nM; in assay [3], 100 to 1000 nM; in assay [4] it was 100 to 1000 nM; in assay [5], 100 to 1000 nM.

As for `CCN(CC)CCNC(=O)c1ccc(Nc2cn(-c3c(Cl)cccc3Cl)nc2C(N)=O)cc1` [compound 422, 1-(2,6-dichlorophenyl)-4-((4-((2-(diethylamino)ethyl)carbamoyl)phenyl)amino)-1H-pyrazole-3-carboxamide], the IC50 lay in the range of 100 to 1000 nM in assay [1]; 10 to 100 nM in assay [2]; 100 to 1000 nM in assay [3]; 100 to 1000 nM in assay [4]; 10 to 100 nM in assay [5].

For `NC(=O)c1nn(-c2c(Cl)cccc2Cl)cc1Nc1ccc(C(=O)N2CC[C@@H](N)C2)cc1` [compound 318, (R)-4-((4-(3-aminopyrrolidine-1-carbonyl)phenyl)amino)-1-(2,6-dichlorophenyl)-1H-pyrazole-3-carboxamide], the IC50 was 100 to 1000 nM in assay [1]; 10 to 100 nM in assay [2]; 100 to 1000 nM in assay [3]; 100 to 1000 nM in assay [4]; 10 to 100 nM in assay [5].

Take `N#Cc1cn(C2COC2)c(-c2ccc(Nc3cn(-c4c(Cl)cccc4Cl)nc3C(N)=O)cc2)n1` [compound 349, 4-((4-(4-cyano-1-(oxetan-3-yl)-1H-imidazol-2-yl)phenyl)amino)-1-(2,6-dichlorophenyl)-1H-pyrazole-3-carboxamide]: the IC50 in assay [1] is 100 to 1000 nM; in assay [2], under 10 nM; in assay [3], 100 to 1000 nM; in assay [4], 100 to 1000 nM; in assay [5] it was 100 to 1000 nM.

For `Cc1ccn(-c2ccc(Nc3cn(-c4c(F)cccc4Cl)nc3C(N)=O)cc2)n1` [compound 232, 1-(2-chloro-6-fluorophenyl)-4-((4-(3-methyl-1H-pyrazol-1-yl)phenyl)amino)-1H-pyrazole-3-carboxamide], the IC50 in assay [1] fell in the range of 100 to 1000 nM; in assay [2] it was 10 to 100 nM; in assay [3] it was 100 to 1000 nM; in assay [4], 100 to 1000 nM; in assay [5], 10 to 100 nM.

With `NC(=O)c1nn(-c2c(F)cccc2F)cc1Nc1ccc(C(=O)N2CCOCC2)nc1` [compound 30, 1-(2,6-difluorophenyl)-4-((6-(morpholine-4-carbonyl)pyridin-3-yl)amino)-1H-pyrazole-3-carboxamide], the IC50 is 100 to 1000 nM in assay [1]; 10 to 100 nM in assay [2]; 100 to 1000 nM in assay [3]; 100 to 1000 nM in assay [4]; 100 to 1000 nM in assay [5].

Turning to `NC(=O)c1nn(-c2c(Cl)cccc2Cl)cc1Nc1ccc(C(=O)N2CC[C@@H](N3CCCC3)C2)cc1` [compound 331, (R)-4-((4-([1,3′-bipyrrolidine]-1′-carbonyl)phenyl)amino)-1-(2,6-dichlorophenyl)-1H-pyrazole-3-carboxamide], the IC50 in assay [1] lay within 100 to 1000 nM; in assay [2] it was 10 to 100 nM; in assay [3], 100 to 1000 nM; in assay [4], 100 to 1000 nM; in assay [5], 100 to 1000 nM.

In the case of `CN1CCC(NC(=O)c2ccc(Nc3cn(-c4c(Cl)cccc4Cl)nc3C(N)=O)cc2)CC1` [compound 31, 1-(2,6-dichlorophenyl)-4-((4-((1-methylpiperidin-4-yl)carbamoyl)phenyl)amino)-1H-pyrazole-3-carboxamide], the IC50 in assay [1] was 100 to 1000 nM; in assay [2], 10 to 100 nM; in assay [3] it was 100 to 1000 nM; in assay [4], 100 to 1000 nM; in assay [5] it was 10 to 100 nM.
